Marks after values point to notes of the source that are not given here.
Assays:
[1] = test system: C57BL/6J mice; experiment: Fecal calprotectin ELISA; type: in vivo; conditions: feces, day 6 vs day 0; once daily gavage
Method: Eight- to 10-week-old specific-pathogen-free C57BL/6J mice were purchased and allowed to acclimate for 2 weeks. Mice were fed standardized laboratory rodent diet and sterile water ad libitum. […] Mice were then rehoused on the basis of treatment group assignment, with 5 animals/group-cage. To induce NSAID enteropathy, mice in group 1 were gavaged once daily with indomethacin (5 mg/kg; for 7 days; Sigma Aldrich, St. Louis, Mo.) dissolved in dimethylysulfoxide (DMSO) (Sigma Aldrich, St. Louis, Mo.) and further diluted in phosphate buffered saline (PBS). […] Sigma Aldrich, St. Louis, Mo.) dissolved in sterile water warmed to 55° C. […] All mice were gavaged with equal volumes (200 μL) and equal concentrations of DMSO (0.001%). Feces were collected daily by placing individual animals in sterile plastic cups that were RNase- and DNase-free until they passed feces. The mice were immediately returned to their home cages and the feces immediately flash frozen at -80° C. All animals were euthanized via CO2 asphyxiation on day 8 (i.e., after 7 days of treatment). […] Life Technologies, Carlsbad, Calif.), homogenized, and prepared as a single cell suspension for flow cytometric analysis as previously described (Wang […]. Measuring bacterial load and immune responses in mice infected with Listeria monocytogenes. Journal of Visualized Experiments: JoVE 2011). […]

[2] = test system: fecal microbiota; experiment: Fecal microbiota 16S rRNA sequencing (ANOSIM, SIMPER); type: in vivo, mice
[3] = unweighted Unifrac distance metric, day 7

Structure (SMILES): COc1ccc2c(c1)c(CC(=O)O)c(C)n2C(=O)c1ccc(Cl)cc1 [NSAID, indomethacin]
- fecal calprotectin levels [1]: significantly different from day 0 calprotectin
- members of the Bacteroidales S24-7 family ([2]; SIMPER, day 7 feces): gain
- mean % abundance ([2]; family Unassigned, Other, day 7 feces): 0.00317%
- mean % abundance ([2]; family c_Bacilli, Other, day 7 feces): 0%
- mean % abundance ([2]; family o_Actinomycetales, f_Micrococcaceae, day 7 feces): 0.00951%
- mean % abundance ([2]; family o_Anaeroplasmatales, f_Anaeroplasmataceae, day 7 feces): 0.0317%
- mean % abundance ([2]; family o_Bacillales, Other, day 7 feces): 0.019%
- mean % abundance ([2]; family o_Bacillales, f_Bacillaceae, day 7 feces): 0.00317%
- mean % abundance ([2]; family o_Bacillales, f_Staphylococcaceae, day 7 feces): 0.019%
- mean % abundance ([2]; family o_Bacteroidale, f_Bacteroidaceae, day 7 feces): 0.00634%
- mean % abundance ([2]; family o_Bacteroidales, f_Prevotellaceae, day 7 feces): 0.00317%
- mean % abundance ([2]; family o_Bacteroidales, f_S24-7, day 7 feces): 81.2%
- mean % abundance ([2]; family o_Clostridiales, Other, day 7 feces): 0.00317%
- mean % abundance ([2]; family o_Clostridiales, f_ (unnamed), day 7 feces): 7.67%
- mean % abundance ([2]; family o_Clostridiales, f_Clostridiaceae, day 7 feces): 1.68%
- mean % abundance ([2]; family o_Clostridiales, f_Dehalobacteriaceae, day 7 feces): 0.00634%
- mean % abundance ([2]; family o_Clostridiales, f_Lachnosoiraceae, day 7 feces): 1.31%
- mean % abundance ([2]; family o_Clostridiales, f_Ruminococcaceae, day 7 feces): 3.53%
- mean % abundance ([2]; family o_Clostridiales, f_[Mogibacteriaceae], day 7 feces): 0.00634%
- mean % abundance ([2]; family o_Coriobacteriales, f_Coriobacteriaceae, day 7 feces): 0.0381%
- mean % abundance ([2]; family o_Cytophagales, f_Cytophagacae, day 7 feces): 0%
- mean % abundance ([2]; family o_Erysipelotrichales, f_Erysipelotrichaceae, day 7 feces): 0.136%
- mean % abundance ([2]; family o_Lactobacillales, f_Aerococcaceae, day 7 feces): 0%
- mean % abundance ([2]; family o_Lactobacillales, f_Enterococcaceae, day 7 feces): 0.171%
- mean % abundance ([2]; family o_Lactobacillales, f_Lactobacillaceae, day 7 feces): 2.48%
- mean % abundance ([2]; family o_Lactobacillales, f_Streptococcaceae, day 7 feces): 0%
- mean % abundance ([2]; family o_RF 39, f_ (unnamed), day 7 feces): 1.62%
- mean % abundance ([2]; family o_Turicibacterales, f_Turicibacteraceae, day 7 feces): 0.0412%
- abundance of members of the phyla Firmicutes and Bacteroidetes ([2]; fecal 16S rRNA sequences, Day 0 vs Day 7): no significant difference
- mean % abundance ([2]; mouse, in vivo): 0%
- mean % abundance ([2]; order Unassigned, Other, day 7 feces): 0.00317%
- mean % abundance ([2]; order c_Mollicutes, o_RF39, day 7 feces): 1.62%
- mean % abundance ([2]; order o_Actinomycetales, day 7 feces): 0.00951%
- mean % abundance ([2]; order o_Anaeroplasmatales, day 7 feces): 0.0317%
- mean % abundance ([2]; order o_Bacillales, day 7 feces): 0.0412%
- mean % abundance ([2]; order o_Bacteroidales, day 7 feces): 81.2%
- mean % abundance ([2]; order o_Clostridiales, day 7 feces): 14.2%
- mean % abundance ([2]; order o_Coriobacteriales, day 7 feces): 0.0381%
- mean % abundance ([2]; order o_Cytophagales, day 7 feces): 0%
- mean % abundance ([2]; order o_Erysipelotrichales, day 7 feces): 0.136%
- mean % abundance ([2]; order o_Lactobacillales, day 7 feces): 2.65%
- mean % abundance ([2]; order o_Turicibacterales, day 7 feces): 0.0412%
- mean % abundance ([2]; order p_Firmicutes, c_Bacilli, Other, day 7 feces): 0%
- mean % abundance ([2]; phylum Unassigned, Other, day 7 feces): 0.00317%
- mean % abundance ([2]; phylum k_Bacteria, Other, day 7 feces): 0%
- mean % abundance ([2]; phylum k_Bacteria, p_Acidobacteria, day 7 feces): 0.00317%
- mean % abundance ([2]; phylum k_Bacteria, p_Actinobacteria, day 7 feces): 0.0476%
- mean % abundance ([2]; phylum k_Bacteria, p_Bacteroidetes, day 7 feces): 81.2%
- mean % abundance ([2]; phylum k_Bacteria, p_Cyanobacteria, day 7 feces): 0.00634%
- mean % abundance ([2]; phylum k_Bacteria, p_Firmicutes, day 7 feces): 17.1%
- mean % abundance ([2]; phylum k_Bacteria, p_Proteobacteria, day 7 feces): 0.00317%
- mean % abundance ([2]; phylum k_Bacteria, p_Tenericutes, day 7 feces): 1.66%
- mean % abundance ([2]; phylum k_Bacteria, p_Verrucomicrobia, day 7 feces): 0%
- Pairwise ANOSIM R-value vs Control [2, 3]: 0.5487*
- Pairwise ANOSIM R-value vs Indole [2, 3]: 0.2615
- Pairwise ANOSIM R-value vs NSAID + Indole [2, 3]: 0.4444

— patent US20190083462A1, “PREVENTION OF NSAID ENTEROPATHY WITH MICROBIOTA-DERIVED TRYPTOPHAN-METABOLITE” (THE TEXAS A&M UNIVERSITY SYSTEM, priority 2016, published 2019)
